Patent US20100056524A1, “Compound” (priority 2008, published 2010)

These compounds were tested against T1, TBK1 (Homo sapiens, UniProt Q9UHD2) (assay: TBK1 protein kinase assay ([γ-33P]ATP, P81 filterplates)). Settings: 50 μM ATP; read-out: Potency (TBK1 IC50 potency score).
T1 construct: All protein kinases were of human origin and encoded full length proteins, unless indicated otherwise; His6; made in house; host or cells: insect Sf21 cells
T1 sequence (Q9UHD2 1-729): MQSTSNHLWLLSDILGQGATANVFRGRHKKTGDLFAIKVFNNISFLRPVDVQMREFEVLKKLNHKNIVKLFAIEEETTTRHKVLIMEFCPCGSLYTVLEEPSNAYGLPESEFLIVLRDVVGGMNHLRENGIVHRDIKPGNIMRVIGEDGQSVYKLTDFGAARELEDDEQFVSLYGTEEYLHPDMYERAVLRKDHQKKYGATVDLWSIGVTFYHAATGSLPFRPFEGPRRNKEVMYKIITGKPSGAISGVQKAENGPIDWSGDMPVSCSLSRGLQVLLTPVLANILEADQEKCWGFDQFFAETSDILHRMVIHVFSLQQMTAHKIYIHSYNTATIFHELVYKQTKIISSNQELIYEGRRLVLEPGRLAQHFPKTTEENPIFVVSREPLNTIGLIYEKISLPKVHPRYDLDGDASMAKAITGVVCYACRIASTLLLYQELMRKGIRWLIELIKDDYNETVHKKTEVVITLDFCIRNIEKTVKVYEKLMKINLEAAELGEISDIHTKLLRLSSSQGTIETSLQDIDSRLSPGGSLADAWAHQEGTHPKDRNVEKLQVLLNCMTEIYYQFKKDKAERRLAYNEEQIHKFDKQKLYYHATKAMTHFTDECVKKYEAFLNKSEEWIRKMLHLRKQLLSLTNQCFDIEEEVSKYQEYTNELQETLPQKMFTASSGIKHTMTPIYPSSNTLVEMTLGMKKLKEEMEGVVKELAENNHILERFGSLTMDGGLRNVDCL
Type: biochemical
Method in brief: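 Human TBK1 assayed for 30 min with peptide substrate (300 μM), 50 μM [γ-33P]ATP and 10 mM magnesium acetate in 50 mM Tris/HCl pH 7.5, 0.1 mM EGTA, 0.1% 2-mercaptoethanol. Stopped with orthophosphoric acid and counted on P81 filters. IC50 from 10 compound concentrations.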

Row | Compound | IC50
1 | CN1CCC(c2ccc(Nc3ncc(C4CC4)c(NCCCNC(=O)C4CCC4)n3)cc2)CC1 [Example 171, Cyclobutanecarboxylic acid (3-{5-cyclopropyl-2-[4-(1-methyl-piperidin-4-yl)-phenylamino]-pyrimidin-4-ylamino}-propyl)-amide] | < 100 nM
2 | CN(C)CCc1ccc(Nc2ncc(C3CC3)c(NCCCNC(=O)C3CCC3)n2)cc1 [Example 172, Cyclobutanecarboxylic acid (3-{5-cyclopropyl-2-[4-(2-dimethylamino-ethyl)-phenylamino]-pyrimidin-4-ylamino}-propyl)-amide] | < 100 nM
3 | CN(C)Cc1ccc(Nc2ncc(C3CC3)c(NCCCNC(=O)C3CCC3)n2)cc1 [Example 173, Cyclobutanecarboxylic acid (3-{5-cyclopropyl-2-[4-(2-dimethylamino-methyl)-phenylamino]-pyrimidin-4-ylamino}-propyl)-amide] | < 100 nM
4 | O=C(NCCCNc1nc(Nc2ccc(C(=O)N3CCOCC3)cc2)ncc1C1CC1)C1CCC1 [Example 174, Cyclobutanecarboxylic acid (3-{5-cyclopropyl-2-[4-(morpholine-4-carbonyl)-phenylamino]-pyrimidin-4-ylamino}-propyl)-amide] | < 100 nM
5 | CN1CCN(C(=O)c2ccc(Nc3ncc(C4CC4)c(NCCCNC(=O)C4CCC4)n3)cc2)CC1 [Example 175, Cyclobutanecarboxylic acid (3-{5-cyclopropyl-2-[4-(4-methyl-piperazine-1-carbonyl)-phenylamino]-pyrimidin-4-ylamino}-propyl)-amide] | < 100 nM

Further lines, results first:

Row | IC50 | Compound
6 | < 100 nM | O=C(NCCCNc1nc(Nc2ccc(S(=O)(=O)Nc3ncccn3)cc2)ncc1C1CC1)C1CCC1 [Example 163, Cyclobutanecarboxylic acid (3-{5-cyclopropyl-2-[4-(pyrimidin-2-ylsulfamoyl)-phenylamino]-pyrimidin-4-ylamino}-propyl)-amide]
7 | < 100 nM | CNC(=O)c1ccc(Nc2ncc(C3CC3)c(NCCCNC(=O)C3CCC3)n2)cc1 [Example 164, 4-{4-[3-(Cyclobutanecarbonyl-amino)-propylamino]-5-cyclopropyl-pyrimidin-2-ylamino}-N-methyl-benzamide]
8 | < 100 nM | CN1CCN(c2ccc(Nc3ncc(C4CC4)c(NCCCNC(=O)C4CCC4)n3)cc2)CC1 [Example 165, Cyclobutanecarboxylic acid (3-{5-cyclopropyl-2-[4-(4-methyl-piperazin-1-yl)-phenylamino]-pyrimidin-4-ylamino}-propyl)-amide]
9 | < 100 nM | O=C(NCCCNc1nc(Nc2ccc(N3CCOCC3)cc2)ncc1C1CC1)C1CCC1 [Example 166, Cyclobutanecarboxylic acid {3-[5-cyclopropyl-2-(4-morpholin-4-yl-phenylamino)-pyrimidin-4-ylamino]-propyl}-amide]
10 | < 100 nM | CN1Cc2cc(Nc3ncc(C4CC4)c(NCCCNC(=O)C4CCC4)n3)ccc2C1=O [Example 167, Cyclobutanecarboxylic acid {3-[5-cyclopropyl-2-(2-methyl-1-oxo-2,3-dihydro-1H-isoindol-5-ylamino)-pyrimidin-4-ylamino]-propyl}-amide]
11 | < 100 nM | O=C(NCCCNc1nc(Nc2ccc3c(c2)CN(CCO)C3=O)ncc1C1CC1)C1CCC1 [Example 168, Cyclobutanecarboxylic acid (3-{5-cyclopropyl-2-[2-(2-hydroxy-ethyl)-1-oxo-2,3-dihydro-1H-isoindol-5-ylamino]-pyrimidin-4-ylamino}propyl)-amide]
12 | < 100 nM | O=C(NCCCNc1nc(Nc2ccc(-n3cncn3)cc2)ncc1C1CC1)C1CCC1 [Example 169, Cyclobutanecarboxylic acid (3-{5-cyclopropyl-2-[4-(2H-1,2,4-triazol-1-yl)-phenylamino]-pyrimidin-4-ylamino}-propyl)-amide]
13 | < 100 nM | O=C1Cc2cc(Nc3ncc(C4CC4)c(NCCCNC(=O)C4CCC4)n3)ccc2N1 [Example 170, Cyclobutanecarboxylic acid {3-[5-cyclopropyl-2-(2-oxo-2,3-dihydro-1H-indol-5-ylamino)-pyrimidin-4-ylamino]-propyl}-amide]
